Test results: patent US10556902B2 (Asceneuron SA, priority 2016, dated 2020)
Read-outs that look alike come from different tables or passages of the source.

Molecular target: His-Tagged hOGA (human O-GlcNAcase) (Homo sapiens (Human), UniProt O60502)
Test: Human O-GlcNAcase enzyme inhibition assay;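 note: reactions contained 20 nM His-tagged hOGA enzyme with 10 µM FL-GlcNAc substrate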
Assay type: biochemical
Settings: FL-GlcNAc substrate
[1] = OGA enzyme inhibition assay, pH 6.5, activity classes defined in μM, read-out: OGA IC50
[2] = OGA IC50 (M), pH 6.5, activity classes defined in μM

Sequence of His-Tagged hOGA (human O-GlcNAcase) (O60502 whole entry): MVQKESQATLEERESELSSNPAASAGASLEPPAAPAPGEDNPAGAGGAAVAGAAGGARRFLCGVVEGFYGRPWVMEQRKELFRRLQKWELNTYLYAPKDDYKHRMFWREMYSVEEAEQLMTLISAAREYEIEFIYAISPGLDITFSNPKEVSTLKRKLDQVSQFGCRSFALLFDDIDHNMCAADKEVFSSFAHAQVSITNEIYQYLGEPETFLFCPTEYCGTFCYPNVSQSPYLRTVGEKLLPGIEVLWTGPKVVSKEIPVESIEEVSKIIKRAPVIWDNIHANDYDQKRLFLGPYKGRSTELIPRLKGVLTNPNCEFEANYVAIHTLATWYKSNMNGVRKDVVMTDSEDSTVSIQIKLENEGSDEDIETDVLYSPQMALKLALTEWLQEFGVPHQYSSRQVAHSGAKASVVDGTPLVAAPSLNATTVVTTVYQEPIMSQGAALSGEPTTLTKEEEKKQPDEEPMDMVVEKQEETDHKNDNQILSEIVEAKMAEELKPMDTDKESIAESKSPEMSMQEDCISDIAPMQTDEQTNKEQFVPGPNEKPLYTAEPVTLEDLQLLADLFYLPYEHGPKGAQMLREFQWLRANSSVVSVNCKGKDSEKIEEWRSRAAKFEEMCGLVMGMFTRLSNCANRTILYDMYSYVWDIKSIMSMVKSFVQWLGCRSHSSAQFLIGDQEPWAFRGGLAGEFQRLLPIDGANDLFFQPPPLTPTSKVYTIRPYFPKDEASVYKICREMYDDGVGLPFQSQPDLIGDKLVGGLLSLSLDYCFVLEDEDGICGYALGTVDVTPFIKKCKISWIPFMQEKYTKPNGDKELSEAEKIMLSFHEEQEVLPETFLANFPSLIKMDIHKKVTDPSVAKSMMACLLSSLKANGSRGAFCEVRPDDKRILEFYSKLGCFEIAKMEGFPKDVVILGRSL
Protocol: Then, 20 nM of His-Tagged hOGA and 10 μM of FL-GlcNAc (Fluorescein mono-beta-D-(2-deoxy-2-N-acetyl) glucopyranoside; Marker Gene Technologies Inc, M1485) were added to the 384-well plate for a final volume of 20 μl.

Row | SMILES | IC50 [1] [µM] | IC50 [2] [µM]
1 | Cc1nnc(N2CCN(C(C)c3ccc4nccnc4c3)CC2)s1 (racemic) [Example 116, 2-methyl-5-(4-(1-(quinoxalin-6-yl)ethyl)piperazin-1-yl)-1,3,4-thiadiazolequinoxaline] | 0.2 to 1 | –
2 | CCOC(=O)c1nnc(N2CCN(C(C)c3ccc4c(c3)OCC4)CC2)s1 (racemic) [Example 117, Ethyl 5-(4-(1-(2,3-dihydrobenzofuran-6-yl)ethyl)piperazin-1-yl)-1,3,4-thiadiazole-2-carboxylate] | 0.05 to 0.2 | –
3 | CNC(=O)c1nnc(N2CCN(C(C)c3ccc4c(c3)OCC4)CC2)s1 (racemic) [Example 118, 5-(4-(1-(2,3-dihydrobenzofuran-6-yl)ethyl)piperazin-1-yl)-N-methyl-1,3,4-thiadiazole-2-carboxamide] | < 0.05 | –
4 | CC(c1ccc2c(c1)OCC2)N1CCN(c2nnc(C(=O)N(C)C)s2)CC1 (racemic) [Example 119, 5-(4-(1-(2,3-dihydrobenzofuran-6-yl)ethyl)piperazin-1-yl)-N,N-dimethyl-1,3,4-thiadiazole-2-carboxamide] | < 0.05 | –
5 | CCOC(=O)c1nnc(N2CCN(C(C)c3ccc4nccnc4c3)CC2)s1 (racemic) [Example 120, Ethyl 5-(4-(1-(quinoxalin-6-yl)ethyl)piperazin-1-yl)-1,3,4-thiadiazole-2-carboxylate] | 1 to 10 | –
6 | CNC(=O)c1nnc(N2CCN(C(C)c3ccc4nccnc4c3)CC2)s1 (racemic) [Example 121, N-methyl-5-(4-(1-(quinoxalin-6-yl)ethyl)piperazin-1-yl)-1,3,4-thiadiazole-2-carboxamide] | 0.2 to 1 | –
7 | CC(c1ccc2nccnc2c1)N1CCN(c2nnc(C(=O)N(C)C)s2)CC1 (racemic) [Example 122, N,N-dimethyl-5-(4-(1-(quinoxalin-6-yl)ethyl)piperazin-1-yl)-1,3,4-thiadiazole-2 carboxamide] | 0.2 to 1 | –
8 | CC(c1ccc2c(c1)OCC2)N1CCN(c2nnc(CN(C)C)s2)CC1 (racemic) [Example 123, 1-(5-(4-(1-(2,3-dihydrobenzofuran-6-yl)ethyl)piperazin-1-yl)-1,3,4-thiadiazol-2-yl)-N,N-dimethylmethanamine] | < 0.05 | –
9 | CC(c1ccc2c(c1)OCC2)N1CCN(c2nnc(CN)s2)CC1 (racemic) [Example 124, (5-(4-(1-(2,3-dihydrobenzofuran-6-yl)ethyl)piperazin-1-yl)-1,3,4-thiadiazol-2-yl)methanamine] | < 0.05 | –
10 | CC(c1ccc2nccnc2c1)N1CCN(c2nnc(CN(C)C)s2)CC1 (racemic) [Example 125, N,N-dimethyl-1-(5-(4-(1-(quinoxalin-6-yl)ethyl)piperazin-1-yl)-1,3,4-thiadiazol-2-yl)methanamine] | 0.2 to 1 | –
11 | CC(c1ccc2nccnc2c1)N1CCN(c2nnc(CN)s2)CC1 (racemic) [Example 126, (5-(4-(1-(quinoxalin-6-yl)ethyl)piperazin-1-yl)-1,3,4-thiadiazol-2-yl)methanamine] | 0.2 to 1 | –
12 | CC(c1ccc2c(c1)OCC2)N1CCN(c2nc3c(s2)CNCC3)CC1 (single isomer, unassigned) [Example 17] | < 0.05 | –
13 | CC(c1ccc2nccnc2c1)N1CCN(c2ccc(=O)[nH]n2)CC1 (single isomer, unassigned) [Example 38, (S)-6-(4-(1-(quinoxalin-6-yl)ethyl)piperazin-1-yl)pyridazin-3(2H)-one or (R)-6-(4-(1-(quinoxalin-6-yl)ethyl)piperazin-1-yl)pyridazin-3(2H)-one] | 0.05 to 0.2 | –
14 | CC(=O)Nc1nnc(N2CCN(C(C)c3ccc4c(c3)OCC4)CC2)s1 (single isomer, unassigned) [Example 108] | 1 to 10 | –
15 | CC(=O)Nc1nnc(N2CCN(C(C)c3ccc4c(c3)OCC4)CC2)s1 (single isomer, unassigned) [Example 109] | < 0.05 | –
16 | CC(c1ccc2nccnc2c1)N1CCC(n2cc(C(F)(F)F)cn2)CC1 (stereo not shown) [Example 31] | – | 1 to 10
17 | CC(c1ccc2nccnc2c1)N1CCN(c2ccc(=O)[nH]n2)CC1 (stereo not shown) [Example 39] | – | 0.05 to 0.2
18 | C[C@@H](c1cnc2cccnc2c1)N1CCN(c2ncc(C(F)(F)F)cn2)CC1 [Example 221] | 0.2 to 1 | –
19 | CC(=O)Nc1nnc(N2CCN([C@@H](C)c3cnc4cccnc4c3)CC2)s1 [Example 222] | 0.05 to 0.2 | –
